Converted amounts (≈) assume the structure as drawn. The source made the active and inactive calls. No cut-off for these calls is given here.
Assays:
Escherichia coli = assay: Antimicrobial activity against Escherichia coli at 100 ug; type: functional, organism-based
[1] = Antitumor activity against human 9KB cells; type: functional, cell-based
Pseudomonas aeruginosa = assay: Antimicrobial activity against Pseudomonas aeruginosa at 100 ug; type: functional, organism-based

- IC50 [1]: 22 µg/mL (≈ 60.7 µM)
Structure (SMILES): C=C1CC[C@@H]([C@@]2(C)CC[C@H](C(C)(C)OC(C)=O)O2)[C@@H](O)[C@H]2C(C)=CC[C@@H]12 [DICTYOL H]
- Activity (Escherichia coli): inactive
- Activity (Pseudomonas aeruginosa): inactive

— ChEMBL document CHEMBL1151642, “Dictyol H, a New Tricyclic Diterpenoid from the Brown Seaweed Dictyota dentata” (J Nat Prod, 1985)
